Measurements: patent US20240174690A1, “ANNULATED 2-AMINO-3-CYANO THIOPHENES AND DERIVATIVES FOR THE TREATMENT OF CANCER” (BOEHRINGER INGELHEIM INTERNATIONAL GMBH, priority 2021, published 2024)

What was measured:
KRAS (G12D)::SOS1 = KRAS (G12D)::SOS1 (Homo sapiens (Human), UniProt P01116, G12D); test: KRAS::SOS1 AlphaScreen binding assay, KRAS G12D
Excerpt: This assay can be used to examine the potency with which compounds according to the invention binding to (mutated) KRAS inhibit the protein-protein interaction between SOS1 and (mutated) KRAS e.g., KRAS WT, KRAS G12C, KRAS G12D, KRAS G12V, KRAS G13D. […] Low IC50 values in this assay setting are indicative of strong inhibition of protein-protein interaction between SOS1 and KRAS:
These assays measure the inhibitory effect of compounds on KRAS mutant protein-protein interactions using the Alpha Screen technology by Perkin Elmer.
The following (mutant) enzyme forms of KRAS and interacting proteins are used in these assays at the given concentrations: • KRAS (G12D) 1-169, N-terminal 6His-tag, C-terminal avi-tag (Xtal BioStructures, Inc.); final assay concentration 10 nM and SOS1 564-1049, N-terminal 229 GST-tag, TEV cleavage site (Viva Biotech Ltd); final assay concentration 5 nM; • KRAS (G12C) 1-169, N-terminal 6His-tag for purification, cleaved off, C-terminal avi-tag, biotinylated, mutations: C51S, C80L, C118S (in house); final assay concentration 7.5 nM and SOS1 564-1049, N-terminal 229 GST-tag, TEV cleavage site (Viva Biotech Ltd); final assay concentration 5 nM; • KRAS (G12V) 1-169, N-terminal 6His-tag for purification, cleaved off, C-terminal avi-tag, biotinylated, TEV cleavage site, mutation: C118S, GDP loaded (in house); final assay concentration 10 nM and SOS1 564-1049, N-terminal 229 GST-tag, TEV cleavage site (Viva Biotech Ltd); final assay concentration 10 nM; • KRAS (G13D) 1-169, N-terminal 6His-tag for purification, cleaved off, C-terminal avi-tag, biotinylated, TEV cleavage site, mutation: C118S, GDP loaded (in house); final assay concentration 10 nM and SOS1 564-1049, N-terminal 229 GST-tag, TEV cleavage site (Viva Biotech Ltd); final assay concentration 10 nM; • KRAS (WT) 1-169, N-terminal 6His-tag for purification, cleaved off, C-terminal avi-tag, biotinylated, TEV cleavage site, mutation: C118S, GDP loaded (in house); final assay concentration 10 nM and SOS1 564-1049, N-terminal 229 GST-tag, TEV cleavage site (Viva Biotech Ltd); final assay concentration 10 nM.
Test compounds dissolved in DMSO are dispensed onto assay plates (Proxiplate 384 PLUS, white, PerkinElmer; 6008289) using an Access Labcyte Workstation with the Labcyte Echo 55×. For the chosen highest assay concentration of 100 μM, 150 nL of compound solution are transferred from a 10 mM DMSO compound stock solution. A series of eleven fivefold dilutions per compound are transferred to the assay plate, compound dilutions are tested in duplicates. DMSO are added as backfill to a total volume of 150 nL.
The assays run on a fully automated robotic system in a darkened room below 100 Lux. To 150 nl of compound dilution 10 μl of a mix including KRAS mutant protein, SOS1 (final assay concentrations see above) and GDP nucleotide (Sigma G7127; final assay concentration 10 μM) in assay buffer (1×PBS, 0.1% BSA, 0.05% Tween 20) are added into columns 1-24.
After 30 minutes incubation time 5 μl of Alpha Screen bead mix in assay buffer are added into columns 1-23. Bead mix consists of AlphaLISA Glutathione Acceptor Beads (PerkinElmer, Cat No AL109) and AlphaScreen Streptavidin Donor Beads (PerkinElmer Cat No 6760002) in assay buffer at a final assay concentration of 10 μg/ml each.
Plates are kept at room temperature in a darkened incubator. After an additional 60 minutes incubation time the signal is measured in a PerkinElmer Envision HTS Multilabel Reader using the AlphaScreen specs from PerkinElmer.
Each plate contains up to 16 wells of a negative control depending on the dilution procedure (platewise or serial) (DMSO instead of test compound; with KRAS mutant::SOS1 GDP mix and bead mix; column 23) and 16 wells of a positive control (DMSO instead of test compound; with KRAS mutant::SOS1 GDP mix w/o bead mix; column 24).
As internal control known inhibitors of KRAS mutant::SOS1 interaction can be measured on each compound plate. […]

AsPC-1 cells = test: AsPC-1 CTG proliferation assay (120 h) (pancreatic cancer, G12D); format: cell-based; details: Homo sapiens, ASPC1
Description: AsPC-1 CTG Proliferation Assay (120 h) (Pancreatic Cancer, G12D)
The CTG assay is designed to measure quantitatively the proliferation of AsPC-1 cells (ATCC […]), using the CellTiter Glow Assay Kit (Promega G7571). Cells are grown in RPMI medium (ATCC) supplemented with Fetal Calf Serum (Life Technologies, Gibco BRL, Cat. No. 10270-106). On “day 0” 2000 AsPC-1 cells are seeded in 60 μL RPMI ATCC+10% FCS+Penstrep in a 384-well plate, flat and clear bottom (Greiner, PNr. 781091). Cells are then incubated in the plates at 37° C. in a CO2 incubator overnight. On day 1, compounds (10 mM stock in DMSO) are added with the ECHO acoustic liquid handler system (Beckman Coulter), including DMSO controls. Plates are incubated for 120 h, and cell viability is measured using CellTiter-Glo luminescent cell viability reagent (Promega product code G7570). Viability (stated as percent of control) is defined as relative luminescence units RLU of each well divided by the RLU of cells in DMSO controls. IC50 values are determined from viability measurements by non-linear regression using a four-parameter model.

Sequence of KRAS (G12D)::SOS1 (P01116 other isoform, or with tags, fused parts or gaps G12D): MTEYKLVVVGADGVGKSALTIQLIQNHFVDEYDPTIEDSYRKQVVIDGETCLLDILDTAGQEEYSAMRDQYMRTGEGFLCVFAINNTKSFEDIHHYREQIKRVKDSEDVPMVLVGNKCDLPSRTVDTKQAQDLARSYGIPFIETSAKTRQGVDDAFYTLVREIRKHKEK

IC50 (KRAS (G12D)::SOS1) | IC50 (AsPC-1 cells) | Compound
2 nM | 1810 nM | C[C@H](Oc1cc(N2CCCC2=O)nc(-c2noc3c2CCC[C@@]32CCCc3sc(N)c(C#N)c32)n1)[C@@H]1CCCN1C [II-73]
2 nM | 2240 nM | C[C@H](Oc1cc(-c2ccn(C)n2)nc(-c2noc3c2CCC[C@@]32CCCc3sc(N)c(C#N)c32)n1)[C@@H]1CCCN1C [II-96]
4 nM | 3170 nM | C[C@H](Oc1cc(-n2cc(C3CC3)nn2)nc(-c2noc3c2CCC[C@@]32CCCc3sc(N)c(C#N)c32)n1)[C@@H]1CCCN1C [II-118]
1 nM | 565 nM | C[C@H](Oc1cc(N2CC[C@H](N(C)C)C2)nc(-c2onc3c2CCC[C@@]32CCCc3sc(N)c(C#N)c32)n1)[C@@H]1CCCN1C [I-11]
1 nM | 748 nM | C[C@H](Oc1cc(N2CCN(C)CC2)nc(-c2noc3c2CCC[C@@]32CCCc3sc(N)c(C#N)c32)n1)[C@@H]1CCCN1C [II-55]
3 nM | 2820 nM | C[C@H](Oc1cc(-n2ccc(Br)n2)nc(-c2noc3c2CCC[C@@]32CCCc3sc(N)c(C#N)c32)n1)[C@@H]1CCCN1C [II-110]
1 nM | 67 nM | C[C@H](Oc1cc(N2CCNC3(CC3)C2)nc(-c2noc3c2CCC[C@@]32CCCc3sc(N)c(C#N)c32)n1)[C@@H]1CCCN1C [II-54]
7 nM | 9190 nM | CO[C@@H]1C[C@@H]([C@H](C)Oc2cc(-c3cnn(C)n3)nc(-c3noc4c3CCC[C@@]43CCCc4sc(N)c(C#N)c43)n2)N(C)C1 [II-62]
3 nM | 2810 nM | C[C@H](Oc1cc(-c2cnsc2)nc(-c2noc3c2CCC[C@@]32CCCc3sc(N)c(C#N)c32)n1)[C@@H]1CCCN1C [II-111]
6 nM | 3060 nM | C[C@H](Oc1cc(-c2ccn(-c3ccsc3)n2)nc(-c2noc3c2CCC[C@@]32CCCc3sc(N)c(C#N)c32)n1)[C@@H]1CCCN1C [II-84]
9 nM | 9450 nM | Cc1cn(-c2cc(O[C@@H](C)[C@@H]3CCCN3C)nc(-c3noc4c3CCC[C@@]43CCCc4sc(N)c(C#N)c43)n2)nn1 [II-106]
2 nM | 1290 nM | C[C@H](Oc1cc(-c2ccccn2)nc(-c2noc3c2CCC[C@@]32CCCc3sc(N)c(C#N)c32)n1)[C@@H]1CCCN1C [II-85]
2 nM | 1940 nM | C[C@H](Oc1cc(-n2cncn2)nc(-c2noc3c2CCC[C@@]32CCCc3sc(N)c(C#N)c32)n1)[C@@H]1CCCN1C [II-70]
1 nM | 142 nM | C[C@H](Oc1cc(N2CCNC[C@]23CCOC3)nc(-c2noc3c2CCC[C@@]32CCCc3sc(N)c(C#N)c32)n1)[C@@H]1CCCN1C [II-50]
4 nM | 7270 nM | CO[C@@H]1C[C@@H]([C@H](C)Oc2cc(-c3ccn(C4COC4)n3)nc(-c3noc4c3CCC[C@@]43CCCc4sc(N)c(C#N)c43)n2)N(C)C1 [II-107]
1 nM | 512 nM | C[C@H](Oc1cc(N2C[C@H](C)NC3(CC3)C2)nc(-c2onc3c2CCC[C@@]32CCCc3sc(N)c(C#N)c32)n1)[C@@H]1CCCN1C [I-8]
7 nM | 5080 nM | C[C@H](Oc1cc(-c2cncs2)nc(-c2noc3c2CCC[C@@]32CCCc3sc(N)c(C#N)c32)n1)[C@@H]1CCCN1C [II-80]

IC50 (KRAS (G12D)::SOS1) | IC50 (AsPC-1 cells) | Compound
3 nM | 2370 nM | C[C@H]1CN(C)CCCN1c1cc(N2CCN(C)CC2)nc(-c2onc3c2CCC[C@@]32CCCc3sc(N)c(C#N)c32)n1 [I-7]
1 nM | 738 nM | C[C@H](Oc1cc(N2CCOC3(COC3)C2)nc(-c2noc3c2CCC[C@@]32CCCc3sc(N)c(C#N)c32)n1)[C@@H]1CCCN1C [II-77]
1 nM | 378 nM | C[C@H](Oc1cc(N2C[C@H](C)N[C@@H](C)C2)nc(-c2noc3c2CCC[C@@]32CCCc3sc(N)c(C#N)c32)n1)[C@@H]1CCCN1C [II-56]
5 nM | 4140 nM | C[C@H](Oc1cc(-c2cnn(C)n2)nc(-c2noc3c2CCC[C@@]32CCCc3sc(N)c(C#N)c32)n1)[C@@H]1CCCN1C [II-86]
4 nM | 2260 nM | CO[C@@H]1C[C@@H]([C@H](C)Oc2cc(-c3ccn(C)n3)nc(-c3noc4c3CCC[C@@]43CCCc4sc(N)c(C#N)c43)n2)N(C)C1 [II-91]
3 nM | 2770 nM | C[C@H](Oc1cc(-n2ccc(C#N)n2)nc(-c2noc3c2CCC[C@@]32CCCc3sc(N)c(C#N)c32)n1)[C@@H]1CCCN1C [II-102]
21 nM | 3810 nM | C[C@H](Oc1cc(N2CCc3cccnc32)nc(-c2noc3c2CCC[C@@]32CCCc3sc(N)c(C#N)c32)n1)[C@@H]1CCCN1C [II-90]
1 nM | 1700 nM | C[C@H](Oc1cc(N2C[C@H](C)N[C@@H](C)C2)nc(-c2onc3c2CCC[C@@]32CCCc3sc(N)c(C#N)c32)n1)[C@@H]1CCCN1C [I-6]
1 nM | 985 nM | C[C@H](Oc1cc([C@@H]2CCOC2)nc(-c2noc3c2CCC[C@@]32CCCc3sc(N)c(C#N)c32)n1)[C@@H]1CCCN1C [II-94]
1 nM | 3970 nM | C[C@H](Oc1cc(N2CC[C@@H](O)C2)nc(-c2noc3c2CCC[C@@]32CCCc3sc(N)c(C#N)c32)n1)[C@@H]1CCCN1C [II-66]
3 nM | 4640 nM | C[C@H](Oc1cc(-n2ccnc2Cl)nc(-c2noc3c2CCC[C@@]32CCCc3sc(N)c(C#N)c32)n1)[C@@H]1CCCN1C [II-93]
14 nM | 3920 nM | C[C@H](Oc1cc(-n2cccc3cnnc2-3)nc(-c2noc3c2CCC[C@@]32CCCc3sc(N)c(C#N)c32)n1)[C@@H]1CCCN1C [II-92]
3 nM | 3060 nM | C[C@H](Oc1cc(-c2cn[nH]c2)nc(-c2noc3c2CCC[C@@]32CCCc3sc(N)c(C#N)c32)n1)[C@@H]1CCCN1C [II-87]
2 nM | 783 nM | C[C@H](Oc1cc(N2CCCC3(COC3)C2)nc(-c2noc3c2CCC[C@@]32CCCc3sc(N)c(C#N)c32)n1)[C@@H]1CCCN1C [II-72]
2 nM | 2240 nM | C[C@H](Oc1cc(N2CCC[C@@H](O)C2)nc(-c2noc3c2CCC[C@@]32CCCc3sc(N)c(C#N)c32)n1)[C@@H]1CCCN1C [II-59]
3 nM | 2800 nM | C[C@H](Oc1cc(C2=CCOCC2)nc(-c2noc3c2CCC[C@@]32CCCc3sc(N)c(C#N)c32)n1)[C@@H]1CCCN1C [II-67]
2 nM | 2850 nM | C[C@H](Oc1cc(N2CCN3CCC3C2)nc(-c2onc3c2CCC[C@@]32CCCc3sc(N)c(C#N)c32)n1)[C@@H]1CCCN1C (some centres unmarked) [I-9]
